The values that follow come from patent publication US8318781B2, “G-protein-conjugated receptor agonist” (Japan Science and Technology Agency, priority 2007, dated 2012).

The target in this experiment is T1, human GPR120 (hGPR120) (Homo sapiens, UniProt Q5NUL3).
T1 construct: expressed in transfected cells; doxycycline-inducible expression vector
T1 sequence (Q5NUL3 1-361): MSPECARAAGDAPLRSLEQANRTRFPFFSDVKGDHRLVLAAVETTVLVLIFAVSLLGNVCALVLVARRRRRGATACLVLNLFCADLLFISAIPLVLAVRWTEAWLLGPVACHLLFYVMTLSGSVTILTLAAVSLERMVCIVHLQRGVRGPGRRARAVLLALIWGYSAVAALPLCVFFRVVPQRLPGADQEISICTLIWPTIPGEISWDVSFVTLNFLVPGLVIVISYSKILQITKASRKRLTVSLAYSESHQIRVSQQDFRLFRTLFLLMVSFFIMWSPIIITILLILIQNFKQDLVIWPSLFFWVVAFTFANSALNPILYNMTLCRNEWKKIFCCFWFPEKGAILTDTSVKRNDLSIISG
The experiment can be described thus: Determination of intracellular Ca2+ concentration (FLIPR), cell line GPR120/Flp-in. To be noted: GPR120/Flp-in cells; for EC50: maximum fluorescence intensity vs ligand concentration, read-out: [Ca^2+]/GPR120/Flp-In pEC50 (converted); for [Ca^2+]/GPR120/Flp-In 10 μM (ratio vs. LA): relative fluorescence intensity vs LA at 10 μM. The class given is cell-based.

With `O=C(O)CCCc1ccc(OCCN(c2ccccc2)c2nccs2)cc1` [NCG46], the EC50 was 1660 nM and the “[Ca^2+]/GPR120/Flp-In 10 μM (ratio vs. LA)” value amounted to 1.06.

`CN(C)c1ccc(N(CCOc2ccc(CCCC(=O)O)cc2)c2ccccn2)cc1` [NCG54]: the EC50 was 2400 nM and the “[Ca^2+]/GPR120/Flp-In 10 μM (ratio vs. LA)” value was found to be 0.92.
